Experiments:
cyclin D1 [1] = test: Western blotting for cyclin D1 in MCF-7 cells; assay type: cell-based, human; conditions: 6 days (4HPR 4 days)
Description: (§1) At the end of the treatment, cells were scrapped and collected by washing with ice-cold PBS in a centrifuge tube. Cells were centrifuged at 2500 r.p.m. for 10 min, the pellet was again washed with ice-cold PBS and centrifuged. The cell pellet was then suspended in chilled cell lysis buffer (0.1 M Tris–HCl, 0.5% Triton X-100, protease inhibitor cocktail) and sonicated on ice for 10–15 s. The homogenate was kept on ice for 30 min and then centrifuged at 13 000 r.p.m. for 30 min. The supernatant was used as cell lysate. The cell lysates were stored at −80°C. Protein concentration of the cell lysates was determined using Bio-Rad protein assay reagents.
(§2) Protein lysates from MCF-7 and T47D cells were subjected to sodium dodecyl sulphate–polyacrylamide gel electrophoresis (SDS–PAGE) and immunoblotted for different proteins. […] Immunoreactive bands were visualised using the enhanced chemiluminescence detection reagents and analysis system (Amersham Bioscences) according to the manufacturer's instructions and quantified by densitometry using ImageQuant software version 5.
(§3) Figure 5 Western blotting of whole-cell lysates of treated MCF-7 and T47D cells for the expression of Cyclin D1. […] Numbers below the blot show fold decrease in expression of the protein as analysed by ImageQuant densitometry analysis. […]

cyclin D1 [2] = test: Western blotting for cyclin D1 in T47D cells; assay type: cell-based, human; conditions: 1, 5 and 10 μM, 6 days
Description: as §1, §2, §3

PARP = test: Western immunoblotting for cleaved PARP in T47D cells; assay type: cell-based, human; conditions: 6 days
Description: as §1, §2
Figure 7 (A) Western immunoblotting of whole-cell lysates of treated MCF-7 and T47D cells for the expression of Bad. […] Numbers below the blot show fold increase in expression of the protein as analysed by ImageQuant densitometry analysis. […]

AP1 activity = test: Anti-AP1 assay (AP-1 CAT reporter, CV-1 cells cotransfected with RAR subtypes); assay type: cell-based; conditions: 10^−6 M; each of the three RAR subtypes cotransfected
Description: The ability of each RAMBA to inhibit AP1 activity was determined using anti-AP1 assays as we have described previously ([Soprano et al, 2000]). Briefly, CV-1 cells were cotransfected with 1.5 μg RAR subtype (RARα, RARβ and RARγ) expression vector construct in pSG5, 1.5 μg AP-1 CAT reporter DNA and 0.5 μg pCMV-β-gal DNA. […] Twenty-four hours later, the cells were harvested and CAT and β-gal activities were assayed. The percentage of AP-1 activity was calculated using the ethanol carrier control sample as 100%.

MCF-7 cells = test: TUNEL apoptosis assay, MCF-7; assay type: cell-based, human; conditions: 5 μM; 6 days; control about 1.5%
Excerpt: The cells were rinsed with PBS and then the stained-labelled apoptotic cells were mounted using DAPI (diamidino-2-phenylindole 2HCl)-glycerol and visualised with a fluorescent microscope using two filters (1) for TUNEL stained cells, and (2) for DAPI stained cells, which represents all the cells (nuclei). Fluorescent microscope model was Nikon, Eclipse E400 and the software was SPOT advanced version 3.5.5 by Diagnostic Instruments Inc. (Sterling Heights, MI, USA).
Figure 6 Graphs showing apoptosis induced in (A) MCF-7 and (B) T47D cells as determined by TUNEL. […] TUNEL-stained apoptotic cells were counted against the DAPI stained cells to obtain percentage apoptosis. The experiments were repeated thrice with similar results. Error bars show s.e.m of three different fields of treated cells, statistically significant ^*P<0.01 and ^**P<0.001 vs control.

## CC1=C(/C=C/C(C)=C/C=C/C(C)=C/C(=O)O)C(C)(C)CCC1 [ATRA, all-trans-retinoic acid, reference compound]
Cyclin D1 [1]
  Decrease of cyclin D1 protein expression compared with untreated control: > 80%

## CC1=C(/C=C/C(C)=C/C=C/C(C)=C/C(=O)O)C(C)(C)CCC1n1ccnc1 (stereo not drawn) [VN/14-1]
Cyclin D1 [2]
  Expression of cyclin D1 (in words): significantly downregulated
PARP; 1 μM
  Increase in level of cleaved PARP compared with control: 6.3 fold
PARP; 5 μM
  Increase in level of cleaved PARP compared with control: 7.5 fold
AP1 activity
  Reduction of AP1-dependent transcription activity: 20–40%

## CC1=C(/C=C/C(C)=C/C=C/C(C)=C\C(=O)Nc2ccc(O)cc2)C(C)(C)CCC1n1ccnc1 (stereo not drawn) [VN/69-1]
MCF-7 cells
  Induction of apoptosis (TUNEL), MCF-7: least effective of the RAMBAs in inducing apoptosis

From article PMC2360155, “Novel retinoic acid metabolism blocking agents have potent inhibitory activities on human breast cancer cells and tumour growth” (British Journal of Cancer, 2007)
